Measurements reported in patent publication US8022103B2, “Ester prodrugs of prostratin and related phorbol compounds” (Salvia Sciences, Inc., priority 2005, dated 2011).
Values after ≈ are worked out from the molar mass of the structure shown. Read-outs that look alike come from different tables or passages of the source.

Assays:
[1] = Solubility in pH controlled solutions and intravenous formulations; type: physicochemical
Description: Solubility of prostratin and SA-101B was measured in pH controlled solutions and in various representative formulations, in particular, intravenous formulations, where solubility is often a limiting factor.

CEM-SS cells = assay: MTS cell viability in CEM-SS cells (cytotoxicity); type: cell-based; details: for TC50: MTS; for Cytotoxicity: at the concentrations evaluated
Description: Cell Preparation. CEM-SS cells were passaged in T-75 flasks prior to use in the antiviral assay. On the day preceding the assay, the cells were split 1:2 to assure they were in an exponential growth phase at the time of infection. Total cell and viability quantification was performed using a hemacytometer and trypan blue exclusion. Cell viability was greater than 95% for the cells to be utilized in the assay. The cells were resuspended at 5×10^4 cells/ml in tissue culture medium and added to the drug-containing microliter plates in a volume of 50 μl.
MTS Staining for Cell Viability. At assay termination, the assay plates were stained with the soluble tetrazolium-based dye MTS (Cell Titer Reagent Promega) to determine cell viability and quantify compound toxicity. At termination of the assay, 20 μL of MTS reagent was added per well. The microtiter plates were then incubated 4 6 hrs at 37° C. Adhesive plate sealers were used in place of the lids, the sealed plate was inverted several times to mix the soluble formazan product and the plate was read spectrophotometrically at 490/650 ηm with a Molecular Devices Vmax plate reader.
Data Analysis. Using an in-house computer program, IC50 (50%, inhibition of virus replication), IC95 (95%, inhibition of virus replication), TC50 (50% reduction in cell viability), TC95 (95% reduction in cell viability), and a therapeutic index (TI=TC50/IC50) were determined.

HIV-1IIIB = assay: PBMC antiviral assay, HIV-1IIIB; type: cell-based; details: human PBMCs
Description: Compounds SA-101A and SA-101B were tested for antiviral activity against HIV-1 in peripheral blood mononuclear cells (PBMC) acutely infected with the HIV-1 isolates. PBMCs were derived from normal HIV-1 negative donors, and cultured under conditions which promote cell survival and HIV replication. Fresh human blood was obtained commercially from Biological Specialty Corporation (Colmar, Pa.). The low passage clinical isolates HIV-1Ba-L, HIVIIIB, and SIVmac251 were from the NIAID AIDS Research and Reference Reagent Program. Immediately before use, pre-titered aliquot of the viruses were removed from storage in a freezer (−80° C.) and thawed rapidly to room temperature in a biological safety cabinet. Phytohemagglutinin (PHA-P) was obtained from Sigma (St. Louis, Mo.) and recombinant IL-2 was obtained from R&D Systems Inc. (Minneapolis, Minn.). Antiviral activity was tested from a high-test concentration of 100 μM or 100 μg/ml with nine ½-log serial dilutions of the compound to derive applicable IC50 (concentration inhibition virus replication by 50%), IC90 (concentration inhibition virus replication by 90%), TC50 (concentration decreasing cell viability by 50%) and TI (therapeutic index: TC50/IC50) values.
Preparation of PMBC. Fresh Human PBMCs, Seronegative for HIV and HBV, were isolated from screened donors (Interstate Blood Bank, Inc. Memphis, Tenn.). Cells were pelleted/washed 2-3 times by low speed centrifugation and resuspensded in PBS to remove contaminating platelets. The leukophoresed blood was then diluted 1:1 with Dulbecco's Phosphate Buffered Saline (DPBS) and layered over 14 mL of Lymphocyte Separation Medium (LSM; Cellgro® by Mediatech, Inc.; density 1.078+/−0.002 g/ml; Cat. # 85-072-CL) in a 50 mL centrifuge tube and then centrifuged for 30 minutes at 600×g. […]
PMBC assay. […] Pooling (mixing) of mononuclear cells from more than one donor is used to minimize the variability observed between individual donors, which results from quantitative and qualitative differences in HIV infection and overall response to the PHA and IL-2 of primary lymphocyte populations. […]

Structure (SMILES) | solubility ([1]; 5% dextrose (intravenous formulation), saline or isotonic, read-out: Solubility 5% Dextrose) [µg/mL] | solubility ([1]; pH controlled solution, pH 1, simulated gastric fluid, read-out: Solubility pH 1) [µg/mL] | solubility ([1]; pH controlled solution, pH 2, simulated gastric fluid, read-out: Solubility pH 2) [µg/mL] | solubility ([1]; pH controlled solution, pH 5, aqueous buffer, read-out: Solubility pH 5) [µg/mL] | solubility ([1]; pH controlled solution, pH 7.5, aqueous buffer, read-out: Solubility pH 7.5) [µg/mL] | solubility ([1]; pH controlled solution, pH 9, aqueous buffer, read-out: Solubility pH 9) [µg/mL] | solubility ([1]; saline (0.9% NaCl) (intravenous formulation), saline or isotonic, read-out: Solubility Saline (0.9% NaCl)) [µg/mL] | TC50 (CEM-SS cells) [µg/mL] | Cytotoxicity (CEM-SS cells) | IC50 (HIV-1IIIB; Human immunodeficiency virus 1, PBMC) [µg/mL] | IC90 (HIV-1IIIB; Human immunodeficiency virus 1, PBMC, read-out: IC90) [µg/mL] | Solubility 5% Dextrose ([1]; 5% Dextrose) [µg/mL] | Solubility Saline (0.9% NaCl) ([1]; Saline (0.9% NaCl)) [µg/mL] | Solubility compared with prostratin ([1]; all media) | Solubility pH 1 ([1]; pH 1) [mg/mL] | Solubility pH 2 ([1]; pH 2) [mg/mL] | Solubility pH 5 ([1]; pH 5) [mg/mL] | Solubility pH 7.5 ([1]; pH 7.5) [mg/mL] | Solubility pH 9 ([1]; pH 9) [mg/mL] | IC90 (HIV-1IIIB; 40% Human AB serum) [µg/mL]
CC(=O)O[C@@]12C[C@@H](C)[C@@]3(O)[C@@H](C=C(CO)C[C@]4(O)C(=O)C(C)=C[C@@H]34)[C@@H]1C2(C)C [SA-101A, 12-deoxyphorbol 13-acetate] | 330 (≈ 845 µM) | 370 (≈ 948 µM) | 370 (≈ 948 µM) | 450 (≈ 1150 µM) | 420 (≈ 1080 µM) | 390 (≈ 999 µM) | 340 (≈ 871 µM) | >0.50 | no cytotoxicity | 0.09 (≈ 0.23 µM) | 0.5 (≈ 1.28 µM) |  |  |  |  |  |  |  |  | 
CC(=O)OC12CC(C)C3(O)C(C=C(COC(=O)CCC(=O)O)CC4(O)C(=O)C(C)=CC43)C1C2(C)C (stereo not shown) [SA-101B, Prostratin Succinate] |  |  |  |  |  |  |  | >0.50 | no cytotoxicity |  |  | >10000 | >10000 | better solubility than prostratin | 1.21 | 4.46 | 7.72 | 11.20 | 12.08 | >1.00
